Read-outs that look alike come from different tables or passages of the source.
Tested on: PKC mediated IL-2 production in human primary T cells
Test: IL-2 ELISA, human primary T cell, anti CD3+CD28+ (whole cell functional assay for PKC mediated IL-2 production)
Format: cell-based
Summary of the method: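 IL-2 in supernatants was quantified by ELISA after 24 h at 37 °C. Before stimulation with plate-coated anti-CD3 (1 μg/ml) and anti-CD28 (5 μg/ml), T cells expanded from PBMC were exposed to compound for 1 h; the counter-screen replaced antibodies with PMA 0.5 ng/ml and ionomycin 0.1 μM (final).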

[1] = 24 h, human primary T cells stimulated with anti-CD3 + anti-CD28, IL-2 by ELISA, read-out: IC50 for blocking IL-2 production
[2] = human primary T cells stimulated with anti-CD3 + anti-CD28, 24 h, IL-2 by ELISA, 8 pt, read-out: IL2 ELISA, Human primary T cell, anti-CD3 + CD28, 8 pt (IC50)

| SMILES | IC50 [1] [µM] | IC50 [2] [µM] |
| --- | --- | --- |
| Cc1nnnn1-c1ccc(F)c(Nc2ncc(C#N)c(NC[C@@H]3CCCN4CCCC[C@H]34)n2)c1 [Compound 118, 4-(((1S,9aR)-octahydro-1H-quinolizin-1-yl)methylamino)-2-(2-fluoro-5-(5-methyl-1H-tetrazol-1-yl)phenylamino)pyrimidine-5-carbonitrile] | < 30 | 0.076 |
| Cc1ccc(Nc2ncc(C#N)c(NC[C@@H]3CCCN4CCCC[C@H]34)n2)cc1C#N [Compound 119, 4-(((1S,9aR)-octahydro-1H-quinolizin-1-yl)methylamino)-2-(3-cyano-4-methylphenylamino)pyrimidine-5-carbonitrile] | < 30 | 0.0357 |
| N#Cc1cc(Nc2ncc(C#N)c(NC[C@@H]3CCCN4CCCC[C@H]34)n2)ccc1C1CC1 [Compound 120, 4-(((1S,9aR)-octahydro-1H-quinolizin-1-yl)methylamino)-2-(3-cyano-4-cyclopropylphenylamino)pyrimidine-5-carbonitrile] | < 30 | 0.0093 |
| COc1cc(Nc2ncc(C#N)c(NC[C@@H]3CCCN4CCCC[C@H]34)n2)cc(OC)c1 [Compound 121, 4-(((1S,9aR)-octahydro-1H-quinolizin-1-yl)methylamino)-2-(3,5-dimethoxyphenylamino)pyrimidine-5-carbonitrile] | < 30 | 0.141 |
| N#Cc1cnc(Nc2cc(-n3nnnc3C3CC3)ccc2F)nc1NC[C@@H]1CCCN2CCCC[C@H]12 [Compound 123, 4-(((1S,9aR)-octahydro-1H-quinolizin-1-yl)methylamino)-2-(5-(5-cyclopropyl-1H-tetrazol-1-yl)-2-fluorophenylamino)pyrimidine-5-carbonitrile] | < 30 | 0.0418 |
| Cc1nnnn1-c1ccc(F)c(Nc2ncc(C(N)=O)c(NC[C@@H]3CCCN4CCCC[C@H]34)n2)c1 [Compound 127, 4-(((1S,9aR)-octahydro-1H-quinolizin-1-yl)methylamino)-2-(2-fluoro-5-(5-methyl-1H-tetrazol-1-yl)phenylamino)pyrimidine-5-carboxamide] | < 30 | 0.824 |
| Cn1nnn(-c2cc(Nc3ncc(C#N)c(NC[C@@H]4CCCN5CCCC[C@H]45)n3)c(F)cc2O)c1=O [Compound 128, 2-((2-fluoro-4-hydroxy-5-(4-methyl-5-oxo-4,5-dihydro-1H-tetrazol-1-yl)phenyl)amino)-4-((((1S,9aR)-octahydro-2H-quinolizin-1-yl)methyl)amino)pyrimidine-5-carbonitrile] | < 30 | 1.94 |
| Cn1nnn(-c2cc(Nc3ncc(C#N)c(NC[C@@H]4CCCN5CCCC[C@H]45)n3)c(F)cc2OCC2COCCO2)c1=O (stereo partly drawn) [Compound 131, 2-((4-((1,4-dioxan-2-yl)methoxy)-2-fluoro-5-(4-methyl-5-oxo-4,5-dihydro-1H-tetrazol-1-yl)phenyl)amino)-4-((((1S,9aR)-octahydro-2H-quinolizin-1-yl)methyl)amino)pyrimidine-5-carbonitrile] | < 30 | 1.3 |
| COCCOCCOc1cc(F)c(Nc2ncc(C#N)c(NC[C@@H]3CCCN4CCCC[C@H]34)n2)cc1-n1nnn(C)c1=O [Compound 133, 2-((2-fluoro-4-(2-(2-methoxyethoxyl)ethoxy)-5-(4-methyl-5-oxo-4,5-dihydro-1H-tetrazol-1-yl)phenyl)amino)-4-((((1S,9aR)-octahydro-2H-quinolizin-1-yl)methyl)amino)pyrimidine-5-carbonitrile] | < 30 | 0.992 |
| Cn1nnn(-c2cc(Nc3ncc(C#N)c(NC[C@@H]4CCCN5CCCC[C@H]45)n3)c(F)cc2OCCO)c1=O [Compound 135, 2-((2-fluoro-4-(2-hydroxyethoxy)-5-(4-methyl-5-oxo-4,5-dihydro-1H-tetrazol-1-yl)phenyl)amino)-4-((((1S,9aR)-octahydro-2H-quinolizin-1-yl)methyl)amino)pyrimidine-5-carbonitrile] | < 30 | – |
| [2H]C([2H])(O)C([2H])([2H])Oc1cc(F)c(Nc2ncc(C#N)c(NC[C@@H]3CCCN4CCCC[C@H]34)n2)cc1-n1nnn(C)c1=O [Compound 137, 2-((2-fluoro-4-(2-hydroxyethoxy-1,1,2,2-d4)-5-(4-methyl-5-oxo-4,5-dihydro-1H-tetrazol-1-yl)phenyl)amino)-4-((((1S,9aR)-octahydro-2H-quinolizin-1-yl)methyl)amino)pyrimidine-5-carbonitrile] | < 30 | – |
| OCCOc1ccc(Nc2ncc(F)c(NC[C@@H]3CCCN4CCCC[C@H]34)n2)cc1-n1cnnn1 [Compound 138, 2-(4-((5-fluoro-4-((((1S,9aR)-octahydro-2H-quinolizin-1-yl)methyl)amino)pyrimidin-2-yl)amino)-2-(1H-tetrazol-1-yl)phenoxy)ethan-1-ol] | < 30 | 0.0493 |
| OCCOc1ccc(Nc2ncc(Cl)c(NC[C@@H]3CCCN4CCCC[C@H]34)n2)cc1-n1cnnn1 [Compound 139, 2-(4-((5-chloro-4-((((1S,9aR)-octahydro-2H-quinolizin-1-yl)methyl)amino)pyrimidin-2-yl)amino)-2-(1H-tetrazol-1-yl)phenoxy)ethan-1-ol] | < 30 | 0.0175 |
| N#Cc1cnc(Nc2ccc(OCCO)c(-n3cnnn3)c2)nc1NC[C@@H]1CCCN2CCCC[C@H]12 [Compound 140, 2-((4-(2-hydroxyethoxy)-3-(1H-tetrazol-1-yl)phenyl)amino)-4-((((1S,9aR)-octahydro-2H-quinolizin-1-yl)methyl)amino)pyrimidine-5-carbonitrile] | < 30 | 0.0276 |

Other lines, results leading:

| IC50 [1] [µM] | IC50 [2] [µM] | SMILES |
| --- | --- | --- |
| < 30 | 0.0117 | Cc1ccc(Nc2ncc(C#N)c(NC[C@@H]3CCCN4CCCC[C@H]34)n2)cc1-n1cnnn1 [Compound 117, 4-(((1S,9aR)-octahydro-1H-quinolizin-1-yl)methylamino)-2-(4-methyl-3-(1H-tetrazol-1-yl)phenylamino)pyrimidine-5-carbonitrile] |
| < 30 | 0.0206 | N#Cc1cnc(Nc2ccc(F)c(-n3nnnc3C3CC3)c2)nc1NC[C@@H]1CCCN2CCCC[C@H]12 [Compound 122, 4-(((1S,9aR)-octahydro-1H-quinolizin-1-yl)methylamino)-2-(3-(5-cyclopropyl-1H-tetrazol-1-yl)-4-fluorophenylamino)pyrimidine-5-carbonitrile] |
| < 30 | 0.0031 | N#Cc1cnc(Nc2ccc(Cl)c(-n3nnnc3C3CC3)c2)nc1NC[C@@H]1CCCN2CCCC[C@H]12 [Compound 124, 4-(((1S,9aR)-octahydro-1H-quinolizin-1-yl)methylamino)-2-(4-chloro-3-(5-cyclopropyl-1H-tetrazol-1-yl)phenylamino)pyrimidine-5-carbonitrile] |
| < 30 | 1.78 | COc1ccc(Nc2ncc(C(N)=O)c(NC[C@@H]3CCCN4CCCC[C@H]34)n2)cc1-n1nnnc1C [Compound 125, 4-(((1S,9aR)-octahydro-1H-quinolizin-1-yl)methylamino)-2-(4-methoxy-3-(5-methyl-1H-tetrazol-1-yl)phenylamino)pyrimidine-5-carboxamide] |
| < 30 | 1.6 | Cc1nnnn1-c1cc(Nc2ncc(C(N)=O)c(NC[C@@H]3CCCN4CCCC[C@H]34)n2)ccc1F [Compound 126, 4-(((1S,9aR)-octahydro-1H-quinolizin-1-yl)methylamino)-2-(4-fluoro-3-(5-methyl-1H-tetrazol-1-yl)phenylamino)pyrimidine-5-carboxamide] |
| < 30 | 1.34 | COCCOc1cc(F)c(Nc2ncc(C#N)c(NC[C@@H]3CCCN4CCCC[C@H]34)n2)cc1-n1nnn(C)c1=O [Compound 129, 2-((2-fluoro-4-(2-methoxyethoxy)-5-(4-methyl-5-oxo-4,5-dihydro-1H-tetrazol-1-yl)phenyl)amino)-4-((((1S,9aR)-octahydro-2H-quinolizin-1-yl)methyl)amino)pyrimidine-5-carbonitrile] |
| < 30 | 0.444 | Cn1nnn(-c2cc(Nc3ncc(C#N)c(NC[C@@H]4CCCN5CCCC[C@H]45)n3)c(F)cc2OCC2(C)COC2)c1=O [Compound 130, 2-((2-fluoro-5-(4-methyl-5-oxo-4,5-dihydro-1H-tetrazol-1-yl)-4-((3-methyloxetan-3-yl)methoxy)phenyl)amino)-4-((((1S,9aR)-octahydro-2H-quinolizin-1-yl)methyl)amino)pyrimidine-5-carbonitrile] |
| < 30 | 1.24 | Cn1nnn(-c2cc(Nc3ncc(C#N)c(NC[C@@H]4CCCN5CCCC[C@H]45)n3)c(F)cc2OCC(O)CO)c1=O (stereo partly drawn) [Compound 132, 2-((4-(2,3-dihydroxypropoxy)-2-fluoro-5-(4-methyl-5-oxo-4,5-dihydro-1H-tetrazol-1-yl)phenyl)amino)-4-((((1S,9aR)-octahydro-2H-quinolizin-1-yl)methyl)amino)pyrimidine-5-carbonitrile] |
| < 30 | 0.908 | Cn1nnn(-c2cc(Nc3ncc(C#N)c(NC[C@@H]4CCCN5CCCC[C@H]45)n3)c(F)cc2OCC(O)(C(F)(F)F)C(F)(F)F)c1=O [Compound 134, 2-((2-fluoro-5-(4-methyl-5-oxo-4,5-dihydro-1H-tetrazol-1-yl)-4-(3,3,3-trifluoro-2-hydroxy-2-(trifluoromethyl)propoxy)phenyl)amino)-4-((((1S,9aR)-octahydro-2H-quinolizin-1-yl)methyl)amino)pyrimidine-5-carbonitrile] |
| < 30 | 0.176 | CC(O)COc1cc(F)c(Nc2ncc(C#N)c(NC[C@@H]3CCCN4CCCC[C@H]34)n2)cc1-n1nnn(C)c1=O (stereo partly drawn) [Compound 136, 2-((2-fluoro-4-(2-hydroxypropoxy)-5-(4-methyl-5-oxo-4,5-dihydro-1H-tetrazol-1-yl)phenyl)amino)-4-((((1S,9aR)-octahydro-2H-quinolizin-1-yl)methyl)amino)pyrimidine-5-carbonitrile] |

— patent US9913843B2, “Protein kinase C inhibitors and uses thereof” (Rigel Pharmaceuticals, Inc., priority 2012, dated 2018)
